Earlier results on two molecules are cited in patent US7897615B2 (Chugai Sciyaku Kabushiki Kaisha, priority 2003, dated 2011).

SMILES strings stand for the structures.

Data set [1] relates to human breast cancer cells.
The next data set has as its system CPT-I muscle (M) isoform. The settings on record: muscle isoform of CPT-I.

As to `CCCCCCCCCCCCCCOc1ccc(C(=O)O)o1` [TOFA, 5-(tetradecyloxy)-2-furoic acid], the antitumor activity result in data set [1] is on record as “does not show any antitumor activity”. Moreover, the malonyl-CoA level in data set [1] (breast carcinoma cells) is recorded as 60 % of the control.
Usually IC50 stands for the midpoint of a concentration-inhibition curve. Regarding `CC(C)(COP(=O)(O)OP(=O)(O)OC[C@H]1O[C@@H](n2cnc3c(N)ncnc32)[C@H](O)[C@@H]1OP(=O)(O)O)[C@@H](O)C(=O)NCCC(=O)NCCSC(=O)CC(=O)O` [Malonyl-CoA], in the data set with CPT-I muscle (M) isoform, the 50% inhibitory concentration (IC50) was 30 nM.
